Experimental data reported in patent US20250250227A1, “AMINO LIPID COMPOUND, PREPARATION METHOD THEREFOR, COMPOSITION THEREOF AND USE THEREOF” (SHENZHEN SHENXIN BIOTECHNOLOGY CO., LTD., priority 2022, published 2025).

Assays:
[1] = Preparation and characterisation of mRNA-encapsulating lipid nanoparticle (encapsulation efficiency, particle size); assay type: physicochemical; conditions: LNP encapsulating Fluc mRNA; Lipid:DSPC:CHO-HP:M-DMG-2000 48:10:40.5:1.5
Protocol: A specified amount of Fluc mRNA stock solution, 0.2 M sodium acetate buffer, and DEPC water were added to a container, and mixed well to obtain a water phase;
The amino lipid compound of the present disclosure, a helper lipid, a structural lipid, and a PEG-lipid were separately dissolved in absolute ethanol to prepare respective solutions at concentrations of 20 mg/mL, 10 mg/mL, 20 mg/mL, and 25 mg/mL, respectively. The above four solutions were pipetted at a molar ratio of Lipid:DSPC:CHO—HP:M-DMG-2000 of 48:10:40.5:1.5, and mixed well to prepare an alcohol phase. • (2) Encapsulation: The water phase and the alcohol phase were injected into a microfluidic chip at a flow rate of water phase: alcohol phase=12 mL/min: 4 mL/min by using a microfluidic preparation instrument (MPE-L2), and encapsulation was carried out at a flow rate of water phase: alcohol phase=9 mL/min: 3 mL/min to obtain mRNA-encapsulating lipid nanoparticle (mRNA-LNP). • (3) Dialysis: The product of step (2) was loaded in a dialysis bag and placed in a Tris Buffer-8% sucrose solution for replacement to remove ingredients such as residual ethanol, unassembled lipids. Dialysis was conducted for 2 h with magnetic stirring at room temperature and under protection from light (dialysate was replaced every 1 hour). • (4) The product of step (3) was sterilized by passing through a […] microporous membrane, and then packaged.
Lipid nanoparticle formulations encapsulating Fluc mRNA were prepared, with a concentration of Fluc mRNA of 0.2 g/L, a mass ratio of Fluc mRNA to Lipid of 1:10, a particle size of 80-130 nm, and a encapsulation efficiency of 85% or higher.
The encapsulation efficiency of the lipid nanoparticle encapsulating luciferase mRNA (Fluc mRNA) with a representative amino lipid compound and the fluorescence expression intensity induced by the same are shown in Table 4, with the amino lipid compound 118 as a control. […]

[2] = tested on: Female BALB/c mice; test: Performance evaluation of in vivo delivery of Fluc mRNA lipid nanoparticle (IVIS, body and organs); conditions: Fluc mRNA LNP; for Liver (fluorescence expression intensity) / Spleen (fluorescence expression intensity): 75 μL IV; for Liver (fluorescence expression intensity) / Spleen (fluorescence expression intensity) / Total flux (fluorescence expression intensity) / (Spleen/Total Flux) * 100%: 6 hours after injection; for Liver (fluorescence expression intensity) / Spleen (fluorescence expression intensity) / Total flux (fluorescence expression intensity): IVIS; for Total flux (fluorescence expression intensity): 75 μL tail vein injection (IV); for (Spleen/Total Flux) * 100% / Multiple of spleen delivery/total delivery to amino lipid compound 118: IV; for Multiple of spleen delivery/total delivery to amino lipid compound 118: relative to amino lipid compound 118
Protocol: Animal preparation: Female BALB/c mice of 6-8 weeks old were selected and raised in an SPF grade breeding room. Animal testing was conducted in strict accordance with the guidelines of national health institutions and animal ethics requirements.
In vivo Delivery: prior to injection of the test LNP formulations, the LNP formulations were gently and repeatedly inverted to thoroughly mix the formulation samples. A corresponding amount of the formulation samples were aspirated with a 1 ml insulin syringe, and the LNP formulations were injected by tail vein injection (IV), with 3 mice in duplicate per formulation. Each mouse was injected with 75 μL of the luciferase mRNA (Fluc mRNA)-encapsulating lipid nanoparticle formulation prepared in Experimental Example 1.
6 hours after injection of LNP formulations, mice were injected with 200 μL D-Luciferin luciferase developing substrate (Catalog No. 122799; Manufacturer: Perkin Elmer). After the substrate was injected, the mice were anesthetized with isoflurane inhalation, and the injection time of luciferase developing substrate was recorded.
The encapsulation efficiency of the lipid nanoparticle encapsulating luciferase mRNA (Fluc mRNA) with a representative amino lipid compound and the fluorescence expression intensity induced by the same are shown in Table 4, with the amino lipid compound 118 as a control.
The multiple of spleen delivery/total delivery of fluorescence expression intensity induced by lipid nanoparticle encapsulating luciferase mRNA (Fluc mRNA) with a representative amino lipid compound to amino lipid compound 118 is shown in Table 5.

Row | SMILES | Encapsulation efficiency [1] [%] | Liver (fluorescence expression intensity) [2] | Spleen (fluorescence expression intensity) [2] | Total flux (fluorescence expression intensity) [2] | (Spleen/Total Flux) * 100% [2] [%] | Multiple of spleen delivery/total delivery to amino lipid compound 118 [2]
1 | CCCCCCC(CCCCCC)OC(=O)CCCCCCCCC(CCCCCCCCC(=O)OC(CCCCCC)CCCCCC)OC(=O)N(CCCCC)CCCN(C)C [Compound 108] | 91.78 | 6.84E+07 | 1.02E+06 | 3.40E+08 | 0.30 | 0.88
2 | CCCCCCC(CCCCCC)OC(=O)CCCCCCCCC(CCCCCCCCC(=O)OC(CCCCCC)CCCCCC)OC(=O)N(CCCCCC)CCCN(C)C [Compound 109] | 92.87 | 5.22E+07 | 8.53E+05 | 2.80E+08 | 0.30 | 0.90
3 | CCCCCCCN(CCCN(C)C)C(=O)OC(CCCCCCCCC(=O)OC(CCCCCC)CCCCCC)CCCCCCCCC(=O)OC(CCCCCC)CCCCCC [Compound 110] | 90.82 | 5.83E+07 | 8.71E+05 | 2.44E+08 | 0.36 | 1.05
4 | CCCCCCCC(=O)N(CCCN(C)C)C(CCCCCCCCC(=O)OC(CCCCCC)CCCCCC)CCCCCCCCC(=O)OC(CCCCCC)CCCCCC [Compound 118, reference compound] | 90.53 | 1.88E+08 | 2.19E+06 | 6.46E+08 | 0.34 | 1.00
5 | CC/C=C\COC(=O)CCCN(CCCN(C)C)C(=O)OC(CCCCCCCCC(=O)OC(CCCCCC)CCCCCC)CCCCCCCCC(=O)OC(CCCCCC)CCCCCC [Compound 275] | 90.61 | 1.23E+08 | 8.84E+06 | 8.16E+08 | 1.08 | 3.19
6 | CCC/C=C\COC(=O)CCCN(CCCN(C)C)C(=O)OC(CCCCCCCCC(=O)OC(CCCCCC)CCCCCC)CCCCCCCCC(=O)OC(CCCCCC)CCCCCC [Compound 276] | 88.92 | 1.43E+08 | 4.67E+06 | 7.70E+08 | 0.61 | 1.78
7 | CC/C=C\CCOC(=O)CCCN(CCCN(C)C)C(=O)OC(CCCCCCCCC(=O)OC(CCCCCC)CCCCCC)CCCCCCCCC(=O)OC(CCCCCC)CCCCCC [Compound 277] | 91.00 | 7.98E+07 | 8.42E+06 | 3.14E+08 | 2.68 | 7.89
8 | CCCC/C=C\CCOC(=O)CCCN(CCCN(C)C)C(=O)OC(CCCCCCCCC(=O)OC(CCCCCC)CCCCCC)CCCCCCCCC(=O)OC(CCCCCC)CCCCCC [Compound 279] | 92.43 | 9.55E+07 | 4.57E+06 | 6.29E+08 | 0.73 | 2.14
9 | CC/C=C\COC(=O)CCCCCN(CCCN(C)C)C(=O)OC(CCCCCCCCC(=O)OC(CCCCCC)CCCCCC)CCCCCCCCC(=O)OC(CCCCCC)CCCCCC [Compound 284] | 91.63 | 3.29E+07 | 5.20E+06 | 3.42E+08 | 1.52 | 4.47
10 | CCCCCCC(CCCCCC)OC(=O)CCCCCCCCC(CCCCCCCCC(=O)OC(CCCCCC)CCCCCC)OC(=O)N(CCCCCC(=O)OC(C)CC)CCCN(C)C (stereo not drawn) [Compound 298] | 92.85 | 3.32E+07 | 2.13E+06 | 2.61E+08 | 0.82 | 2.40
11 | CCCCCCC(CCCCCC)OC(=O)CCCCCCCCC(CCCCCCCCC(=O)OC(CCCCCC)CCCCCC)OC(=O)N(CCCCC(=O)OC(C)CCC)CCCN(C)C (stereo not drawn) [Compound 303] | 93.23 | 8.58E+07 | 5.56E+06 | 6.41E+08 | 0.87 | 2.55
12 | CCCCCCC(CCCCCC)OC(=O)CCCCCCCCC(CCCCCCCCC(=O)OC(CCCCCC)CCCCCC)OC(=O)N(CCCCC(=O)OC(CC)CC)CCCN(C)C [Compound 304] | 92.03 | 1.06E+08 | 1.48E+07 | 5.18E+08 | 2.86 | 8.40
13 | CCCCCCC(CCCCCC)OC(=O)CCCCCCCCC(CCCCCCCCC(=O)OC(CCCCCC)CCCCCC)OC(=O)N(CCCCC(=O)OC(C)CCCC)CCCN(C)C (stereo not drawn) [Compound 305] | 90.70 | 9.19E+07 | 7.03E+06 | 6.71E+08 | 1.05 | 3.08
14 | CCCCCCC(CCCCCC)OC(=O)CCCCCCCCC(CCCCCCCCC(=O)OC(CCCCCC)CCCCCC)OC(=O)N(CCCCC(=O)OC(CC)CCC)CCCN(C)C (stereo not drawn) [Compound 306] | 91.92 | 4.13E+07 | 5.44E+06 | 2.45E+08 | 2.22 | 6.53
15 | CCCCCCC(CCCCCC)OC(=O)CCCCCCCCC(CCCCCCCCC(=O)OC(CCCCCC)CCCCCC)OC(=O)N(CCCC(=O)OC(C)CC)CCCN(C)C (stereo not drawn) [Compound 308] | 93.71 | 9.58E+07 | 4.93E+06 | 6.29E+08 | 0.78 | 2.31
